Source: ChEMBL document CHEMBL1125922, “Peptide leukotrienes: current status of research” (J Med Chem, 1991)

Legend:
Cavia porcellus [1] = species on record: Cavia porcellus; assay: (§1) Antagonistic activity against LTD4 induced contraction in guinea pig trachea; assay type: functional, organism-based; conditions: for Kb: read-out: pA2 (converted)
[2] = target: T1, Cysteinyl leukotriene receptor 1 (Cavia porcellus, UniProt Q2NNR5); assay: Compound was evaluated for its ability to displace [3H]LTD4 from LTD4 receptor in guinea pig lung membranes; assay type: cell membranes, Membrane
T1 sequence (Q2NNR5 whole entry): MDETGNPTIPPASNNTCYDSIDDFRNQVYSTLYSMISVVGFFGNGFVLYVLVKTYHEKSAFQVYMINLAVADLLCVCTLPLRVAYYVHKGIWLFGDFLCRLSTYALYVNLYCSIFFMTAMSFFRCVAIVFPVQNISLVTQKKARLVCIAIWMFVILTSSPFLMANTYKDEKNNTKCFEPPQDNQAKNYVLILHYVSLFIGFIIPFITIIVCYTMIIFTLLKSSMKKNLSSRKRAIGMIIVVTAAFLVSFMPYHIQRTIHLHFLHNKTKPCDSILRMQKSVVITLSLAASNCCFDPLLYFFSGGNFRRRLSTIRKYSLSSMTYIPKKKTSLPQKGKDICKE

Cavia porcellus [3] = species on record: Cavia porcellus; assay: as §1; assay type: functional
Homo sapiens = species on record: Homo sapiens; assay: Antagonistic activity against LTD4 induced contraction in human bronchus; assay type: functional
[4] = target: T1, Cysteinyl leukotriene receptor 1; assay: Compound was evaluated for its ability to displace [3H]LTD4 from Cysteinyl leukotriene D4 receptor in guinea pig lung membranes; assay type: cell membranes, Membrane
Cavia porcellus [5] = species on record: Cavia porcellus; assay: Antagonistic activity against LTD4 induced contraction in guinea pig lung parenchymal strips; assay type: functional; conditions: Lung parenchyma, read-out: pA2 (converted)
Cavia porcellus [6] = species on record: Cavia porcellus; assay: Antagonistic activity against LTD4 induced contraction in guinea pig ileum; assay type: functional

SMILES | Kb (Cavia porcellus [1]) [nM] | pKB (Cavia porcellus [3]) | further results
CCCc1c(OCCCSc2ccc([C@@H](O)[C@H](C)CC(=O)O)cc2)ccc(C(C)=O)c1O [L-649923] | 63.1 |  | Ki [2]: 400 nM
O=C(O)CCS[C@H](c1ccccc1CCCCCCCCc1ccccc1)[C@@H](O)C(=O)O [POBILUKAST] | 2.51 |  | 
CCCc1c(OCCCCc2nnn[nH]2)ccc(C(C)=O)c1O [TOMELUKAST] |  | 6.9 | Ki [2]: […]
O=C(Nc1cccc2c(=O)cc(-c3nnn[nH]3)oc12)c1ccc(OCCCCc2ccccc2)cc1 |  | 7.5 | 
CCCc1c(OCC(O)COc2ccc3c(=O)cc(C(=O)O)oc3c2CCC)ccc(C(C)=O)c1O (stereo unspecified) [FPL-55712] | 200 |  | 
CCC(CC)(CC(=O)Nc1cccc(/C=C/c2nc(C3CCC3)cs2)c1)C(=O)O |  |  | pKB (Homo sapiens): 9.3
O=C(O)CCS[C@@H](CC(=O)O)c1ccccc1CCCCCCCCc1ccccc1 |  | 7.6 | Ki [4]: 60 nM
CCCCCCCCC/C=C\C=C\[C@@H](SCCC(=O)O)[C@@H](O)c1cccc(-c2nnn[nH]2)c1 | 7.94 |  | 
CN(C)C(=O)CCSC(SCCC(=O)O)c1cccc(/C=C/c2ccc3ccc(Cl)cc3n2)c1 (stereo unspecified) [MK-571] |  | 9.3 | Ki [4]: 0.2 nM
CCCc1c(COc2ccc(Cc3nnn[nH]3)cc2)ccc(C(C)=O)c1O [LY-163443] |  | 7.5 | 
COc1cc(C(=O)NS(=O)(=O)c2ccccc2)ccc1Cn1ncc2ccc(NC(=O)OC3CCCC3)cc21 [ICI-198615] | 0.0794 |  | Ki [2]: 0.3 nM
CCCc1c(OCCCS(=O)(=O)c2ccc(C(=O)CCC(=O)O)cc2)ccc(C(C)=O)c1O [L-648051] | 50.1 |  | 
c1ccc(Cc2nn[nH]n2)c(COc2ccc(OCc3ccc4ccccc4n3)cc2)c1 [RG-12525] |  |  | Kb (Cavia porcellus [5]): 3.98 nM
CCCc1c(OCCCOc2cc(NC(=O)c3nn[nH]n3)c(C)cc2Cl)ccc(C(C)=O)c1O [CGP-35949] | 39.8 |  | 
CCCc1c(OCCCCc2nnn(CCCCc3nnn[nH]3)n2)ccc(C(C)=O)c1O [LY-203647] |  | 6.4 | 
O=C(O)c1ccccc1Nc1cccc(OCc2ccc3ccccc3n2)c1 [SR-2640] |  | 8.7 | 
COc1cc(C(=O)NS(=O)(=O)c2ccccc2C)ccc1Cc1cn(C)c2ccc(NC(=O)OC3CCCC3)cc12 [ZAFIRLUKAST] |  | 9.5 | 
CCCc1c(OCCCSc2nnc(SCC(=O)O)s2)ccc(C(C)=O)c1O [YM-16638] |  |  | IC50 (Cavia porcellus [1]): 160 nM
O=S(=O)(Nc1cccc(OCc2ccc3ccccc3n2)c1)C(F)(F)F [RITOLUKAST] |  | 7.8 | 
CCCc1c(OCCCOc2ccc3c(c2CCC)OC(C)(CCC(=O)O)CC3=O)ccc(C(C)=O)c1O (stereo unspecified) [SC-39070] |  |  | pKB (Cavia porcellus [6]): 8.2
CCCCC/C=C/C\C=C/C=C/C=C/[C@@H](Sc1ccc2c(=O)cc(C(=O)O)oc2c1)[C@H](O)CCCC(=O)O |  |  | IC50 [4]: 100 nM
